According to PubChem BioAssay AID1963854 (Molecular Pharmacology Branch, DTP, NCI, 2024):
“And” between values parts separate entries of the source, which are not always exact repeats. Equal values may be shown once.

Tested on: 186277-243-T-J2-PDC complex spheroid viability
Test: Anticancer human tumor 186277-243-T-J2-PDC patient-derived colon adenocarcinoma cell line growth inhibition [POLQ]
Conditions: for viability, T/C: stronger effect = lower value; active = viability on the fitted dose curve at most 10% of control; inactive = the rest
Description: Multicellular complex tumor spheroid response to Polymerase (POL) inhibitors (novobiocin, ART-558, RP6685) in combination with a variety of drugs and investigational agents in selected tumor cell lines
The POL inhibitors (novobiocin, ART-558, and RP6685) were evaluated both individually and in combination with standard of care and investigational anticancer small molecules within a complex spheroid model of solid tumors. . Complex spheroids include a stromal component modeled by human endothelial cells (HUVEC) and fibroblasts modeled by human mesenchymal stem cells (MSCs). The concentration ranges selected for each drug and investigational agent were based upon clinically achievable concentrations if the clinical Cmax of the agent was known.
Compounds. The drugs and investigational agents: novobiocin (NSC847541), ART-558 (NSC835418), RP-6685 (NSC848927), peposertib (NSC802822), ceralasertib (NSC780249), elimusertib (NSC800525), camonsertib (NSC841442), AZD-1390 (NSC803789), olaparib (NSC753686), talazoparib (NSC767125), rucaparib (NSC756644), sotorasib (NSC818433), MRTX-1133 (NSC836407), SN-38 (NSC673596), topotecan (NSC609699), epotoside (NSC141540), doxorubicin (NSC123127), gemcitabine (NSC613327), 5-fluorouracil (NSC19893), paclitaxel (NSC125973), vemurafenib (NSC761431), MSA-2 (NSC828583), SN-011 (NSC837082), adavosertib (NSC754352), prexasertib (NSC758257), carboplatin (NSC241240) and oxaliplatin (NSC266046), were obtained from the National Cancer Institute (NCI) Developmental Therapeutics Program Chemical Repository (21). The FDA-approved anticancer drug set is available from the Developmental Therapeutics Program at https://dtp.cancer.gov/organization/dscb/obtaining/. […] The stock solutions were prepared in dimethyl sulfoxide (DMSO, Sigma-Aldrich, St. Louis, MO, cat. D2650), except for the platinum compounds which were prepared in saline (Quality Biological, Gaithersburg, MD, cat. 114-055-101), at 800-fold the tested concentration and stored at -70 degrees C prior to their use. All drugs and investigational agents were tested over a range starting from a high concentration at or near the clinical Cmax and decreasing in half-log increments. If the clinical Cmax for an agent had not been determined, the highest concentration tested was 10 microM, except for SN-38, which was tested at a high concentration of 1 microM.
Cell Culture. All cells were maintained in an incubator at 37 degrees C and 5% CO2 with 95% humidity. The PDC lines were cultured according to standard operating procedures established by the NCI PDMR (https://pdmr.cancer.gov). Table 3 of the manuscript, lists the cell lines along with the number of the three cell types plated to form the mct-spheroids and media for tumor cell growth. After thawing, all PDC lines, except 997537-175-T-J1-PDC and 415267-285-R-J2-PDC, were cultured in Matrigel-coated flasks prepared with a working solution of 1X Ham's F-12 nutrient mix, without supplementation (Thermo Fisher Scientific, cat. 11765054), 100 U/mL penicillin-streptomycin (Thermo Fisher Scientific, cat. 15140122), and 2.5% Matrigel (Corning Inc., Corning, NY, cat. 354248) for the first three passages. The two PDC lines 997537-175-T-J1-PDC and 415267-285-R-J2-PDC were cultured on uncoated flasks. The 857933-349-R-J2-PDC line was cultured in 6C/Colon 1B media containing advanced DMEM/F-12 (Thermo Fisher Scientific, cat. 12634028), 10 mM HEPES (Thermo Fisher Scientific, cat. 15630080), 1X GlutaMAX supplement (Thermo Fisher Scientific, cat. 35050061), 0.1 mg/mL primocin (InvivoGen, San Diego, CA, cat. ant-pm-2), 10% defined fetal bovine serum, heat inactivated (HyClone Laboratories Inc., Logan, UT, cat. SH30070.03HI), 50% L-WRN conditioned media (ATCC, cat. CRL-3276), 1.25 mM N-Acetyl-L-cysteine (Sigma-Aldrich, cat. A9165), 10 mM nicotinamide (Sigma-Aldrich, cat. N0636), 1X B-27 supplement (Thermo Fisher Scientific, cat. 17504044), 1X N-2 supplement (Thermo Fisher Scientific, cat. […]

[1] = curve of first compound, second compound 0.0316 µM
[2] = curve of first compound, second compound 0.1 µM
[3] = curve of first compound, second compound 0.316 µM
[4] = curve of first compound, second compound 1 µM
[5] = curve of first compound, second compound 3.16 µM
[6] = curve of first compound, second compound 10 µM
[7] = second compound 0.0316 µM, first compound 0.0316 µM
[8] = second compound 0.0316 µM, first compound 0.1 µM
[9] = second compound 0.0316 µM, first compound 0.316 µM
[10] = second compound 0.0316 µM, first compound 1 µM
[11] = second compound 0.0316 µM, first compound 3.16 µM
[12] = second compound 0.0316 µM, first compound 10 µM
[13] = second compound 0.1 µM, first compound 0.0316 µM
[14] = second compound 0.1 µM, first compound 0.1 µM
[15] = second compound 0.1 µM, first compound 0.316 µM
[16] = second compound 0.1 µM, first compound 1 µM
[17] = second compound 0.1 µM, first compound 3.16 µM
[18] = second compound 0.1 µM, first compound 10 µM
[19] = second compound 0.316 µM, first compound 0.0316 µM
[20] = second compound 0.316 µM, first compound 0.1 µM
[21] = second compound 0.316 µM, first compound 0.316 µM
[22] = second compound 0.316 µM, first compound 1 µM
[23] = second compound 0.316 µM, first compound 3.16 µM
[24] = second compound 0.316 µM, first compound 10 µM
[25] = second compound 1 µM, first compound 0.0316 µM
[26] = second compound 1 µM, first compound 0.1 µM
[27] = second compound 1 µM, first compound 0.316 µM
[28] = second compound 1 µM, first compound 1 µM
[29] = second compound 1 µM, first compound 3.16 µM
[30] = second compound 1 µM, first compound 10 µM
[31] = second compound 3.16 µM, first compound 0.0316 µM
[32] = second compound 3.16 µM, first compound 0.1 µM
[33] = second compound 3.16 µM, first compound 0.316 µM
[34] = second compound 3.16 µM, first compound 1 µM
[35] = second compound 3.16 µM, first compound 3.16 µM
[36] = second compound 3.16 µM, first compound 10 µM
[37] = second compound 10 µM, first compound 0.0316 µM
[38] = second compound 10 µM, first compound 0.1 µM
[39] = second compound 10 µM, first compound 0.316 µM
[40] = second compound 10 µM, first compound 1 µM
[41] = second compound 10 µM, first compound 3.16 µM
[42] = second compound 10 µM, first compound 10 µM
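Also: spheroids exposed to compounds for seven days.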

Nc1ccn(C2OC(CO)C(O)C2(F)F)c(=O)n1 (stereo not given)
7.05% and 13.8% and 6.01%: viability, T/C (compound 0.316 µM)
7.56% and 13.9% and 6.67%: viability, T/C (compound 3.16 µM)
8.16% and 14.3% and 6.86%: viability, T/C (compound 1 µM)
7.08% and 13.1% and 7.05%: viability, T/C (compound 0.0316 µM)
6.01% and 12.5% and 5.9%: viability, T/C (compound 0.1 µM)
< 0.0316 µM: IC50 (curve of compound)
6.46% and 13.6% and 5.49%: viability, T/C (compound 10 µM)

COc1cc2cc(C(=O)CCC(=O)O)sc2cc1OC + COC1C(OC(N)=O)C(O)C(Oc2ccc3c(O)c(NC(=O)c4ccc(O)c(CC=C(C)C)c4)c(=O)oc3c2C)OC1(C)C
inactive: viability, T/C [7] 110% | viability, T/C [8] 99.3% | viability, T/C [9] 101% | viability, T/C [10] 99.2% | viability, T/C [11] 106% | viability, T/C [12] 96.6% | viability, T/C [13] 98.3% | viability, T/C [14] 88% | viability, T/C [15] 103% | viability, T/C [16] 101% | viability, T/C [17] 103% | viability, T/C [18] 103% | viability, T/C [19] 102% | viability, T/C [20] 102% | viability, T/C [21] 93.6% | viability, T/C [22] 99.5% | viability, T/C [23] 98.1% | viability, T/C [24] 120% | viability, T/C [25] 111% | viability, T/C [26] 99.1% | viability, T/C [27] 109% | viability, T/C [28] 106% | viability, T/C [29] 110% | viability, T/C [30] 103% | viability, T/C [31] 89.5% | viability, T/C [32] 108% | viability, T/C [33] 100% | viability, T/C [34] 98.9% | viability, T/C [35] 105% | viability, T/C [36] 114% | viability, T/C [37] 106% | viability, T/C [38] 111% | viability, T/C [39] 110% | viability, T/C [40] 117% | viability, T/C [41] 105% | viability, T/C [42] 101%
> 10 µM: IC50 [1] | IC50 [2] | IC50 [3] | IC50 [4] | IC50 [5] | IC50 [6]

C#Cc1c(F)ccc2cc(O)cc(-c3ncc4c(N5CC6CCC(C5)N6)nc(OCC56CCCN5CC(F)C6)nc4c3F)c12 (stereo not given)
inactive: viability, T/C (compound 0.0316 µM) 85.1% and 95.6% and 68.7% | viability, T/C (compound 0.1 µM) 53.8% and 92.9% and 36.9% | viability, T/C (compound 0.316 µM) 20.1% and 56% and 19.9%
5.14% and 11.6% and 4.6%: viability, T/C (compound 10 µM)
12% and 28% and 9.47%: viability, T/C (compound 1 µM)
0.113 µM and 0.427 µM and 0.0626 µM: IC50 (curve of compound)
7.06% and 18.8% and 5.67%: viability, T/C (compound 3.16 µM)

CC1COCCN1c1cc(C2(O)CC3CCC(C2)O3)c2cnn(-c3ccn[nH]3)c2n1 (stereo not given) + COC1C(OC(N)=O)C(O)C(Oc2ccc3c(O)c(NC(=O)c4ccc(O)c(CC=C(C)C)c4)c(=O)oc3c2C)OC1(C)C
0.0396 µM: IC50 [2]
0.0418 µM: IC50 [5]
0.0375 µM: IC50 [1]
0.0403 µM: IC50 [3]
active: viability, T/C [9] 4.13% | viability, T/C [10] 2.97% | viability, T/C [11] 3.3% | viability, T/C [12] 3.36% | viability, T/C [14] 8.95% | viability, T/C [15] 3.87% | viability, T/C [16] 2.7% | viability, T/C [17] 3.24% | viability, T/C [18] 3.18% | viability, T/C [21] 4.98% | viability, T/C [22] 2.92% | viability, T/C [23] 3.45% | viability, T/C [24] 3.48% | viability, T/C [27] 3.79% | viability, T/C [28] 2.66% | viability, T/C [29] 3.46% | viability, T/C [30] 3.76% | viability, T/C [32] 9.45% | viability, T/C [33] 4.01% | viability, T/C [34] 2.86% | viability, T/C [35] 3.33% | viability, T/C [36] 3.12% | viability, T/C [38] 7.48% | viability, T/C [39] 4.86% | viability, T/C [40] 2.78% | viability, T/C [41] 4.14% | viability, T/C [42] 3.73%
< 0.0316 µM: IC50 [6]
inactive: viability, T/C [7] 56.8% | viability, T/C [8] 11% | viability, T/C [13] 60% | viability, T/C [19] 60% | viability, T/C [20] 12.3% | viability, T/C [25] 56.2% | viability, T/C [26] 12.9% | viability, T/C [31] 63% | viability, T/C [37] 47.8%
0.0372 µM: IC50 [4]

O=c1[nH]cc(F)c(=O)[nH]1
inactive: viability, T/C (compound 0.0316 µM) 88.9% and 104% and 92.7% | viability, T/C (compound 0.1 µM) 89.7% and 103% and 117% | viability, T/C (compound 0.316 µM) 97.9% and 120% and 108% | viability, T/C (compound 1 µM) 98% and 95% and 112% | viability, T/C (compound 3.16 µM) 77% and 103% and 69.6% | viability, T/C (compound 10 µM) 48.4% and 63.8% and 49.9%
9.37 µM and > 10 µM: IC50 (curve of compound)
